{
  "source": "patent US8871251B2",
  "about": "“Liposome and method for producing the same” (Can Heal BioMediTech Corp., priority 2008, dated 2014)",
  "assay_in_all_cases": "MTT assay, curcumin concentration killing 50% of cells",
  "format_in_all_cases": "cell-based",
  "key": {"JC": {"test_system": "JC", "conditions": "mouse breast adenocarcinoma, mean±SD (n=6), read-out: curcumin concentration required for killing 50% of the cells", "description": "(§1) In this experiment, whether the liposome has the capability of carrying drugs is observed by MTT assay. First, curcumin was added into cells at different concentrations, to obtain the curcumin concentration required for killing 50% of the cells. Next, the liposome with curcumin at different concentrations (curcumin-liposome) was sent into cells of the same type respectively, to obtain the curcumin concentration required for killing 50% of the cells. In Table 1, all the concentrations are expressed as mean±standard deviation (SD) (n=6)."}, "HepG2": {"test_system": "HepG2", "conditions": "HepG2, human hepatocellular carcinoma; mean±SD (n=6); read-out: curcumin concentration required for killing 50% of the cells", "description": "as §1"}, "HT-29": {"test_system": "HT-29", "conditions": "HT-29, human colorectal adenocarcinoma; mean±SD (n=6); read-out: curcumin concentration required for killing 50% of the cells", "description": "as §1"}, "B16/F10": {"test_system": "B16/F10", "conditions": "B16/F10, mouse melanoma; mean±SD (n=6); read-out: curcumin concentration required for killing 50% of the cells", "description": "as §1"}, "HeLa": {"test_system": "HeLa", "conditions": "human cervical cancer, mean±SD (n=6), read-out: curcumin concentration required for killing 50% of the cells", "description": "as §1"}, "LL-2": {"test_system": "LL-2", "conditions": "LL-2, mouse lung carcinoma; mean±SD (n=6); read-out: curcumin concentration required for killing 50% of the cells", "description": "as §1"}, "CT-26": {"test_system": "CT-26", "conditions": "CT26; CT-26, mouse colorectal adenocarcinoma; mean±SD (n=6); read-out: curcumin concentration required for killing 50% of the cells", "description": "as §1"}, "A549": {"test_system": "A549", "conditions": "A549, human lung carcinoma; mean±SD (n=6); read-out: curcumin concentration required for killing 50% of the cells", "description": "as §1"}},
  "data": [
    {"smiles": "COc1cc(/C=C/C(=O)CC(=O)/C=C/c2ccc(O)c(OC)c2)ccc1O", "note": "[Curcumin, curcumin]", "values": [
      {"measurement": "IC50", "setting": "JC", "result": "11 ± 1.47", "unit": "µM"},
      {"measurement": "IC50", "setting": "HepG2", "result": "12.2 ± 1.11", "unit": "µM"},
      {"measurement": "IC50", "setting": "HT-29", "result": "12.9 ± 1.18", "unit": "µM"},
      {"measurement": "IC50", "setting": "B16/F10", "result": "8.16 ± 1.01", "unit": "µM"},
      {"measurement": "IC50", "setting": "HeLa", "result": "17.7 ± 6.95", "unit": "µM"},
      {"measurement": "IC50", "setting": "LL-2", "result": "10.8 ± 2.33", "unit": "µM"},
      {"measurement": "IC50", "setting": "CT-26", "result": "7.92 ± 0.77", "unit": "µM"},
      {"measurement": "IC50", "setting": "A549", "result": "30 ± 9.45", "unit": "µM"}
    ]}
  ]
}
